# Laboratory results published in patent US20250188077A1, “CRYSTAL FORM OF 1H-PYRROLO[2,3-C]PYRIDINE COMPOUND AND PREPARATION METHOD THEREFOR” (JUMBO DRUG BANK CO., LTD., priority 2022, published 2025).
# Where two headings read alike, the source gives them in different places.
# Legend:
# [1] = Solid stability test (XRPD crystal form after storage); type: physicochemical; conditions: 40° C./75% RH(open)
# [2] = as above; type: physicochemical
# Description: The samples placed at high temperature and humidity were sampled for XRPD testing on the 10th and 30th day; The samples exposed to light were put into a clean surface dish, laid into a thin layer, covered with a quartz glass cover, and sampled for XRPD testing on the 5th and 10th days; For the long-term test and accelerated test (shading), each sample were put into a double-layer LDPE bag, each layer of LDPE bag was respectively buckled and sealed, and then the LDPE bag was put into an aluminum foil bag with a package of desiccant and heat sealed. The samples were respectively placed at 25° C./60% RH, 30° C./65% RH and 40° C./75% RH for exploration, the test results were compared with the initial test results of 0 day and the test results were shown in Table 7 below.
# [3] = tested on: BCR-FMS-BaF3 cells; experiment: CellTiter-Glo luminescent cell viability / cell proliferation assay; type: cell-based; conditions: for IC50: 72 h, BCR-FMS-BaF3, 3 days incubation
# Description: Luminescent Cell Viability Assay (CellTiter-Glo® methold) from Promega was used for cell proliferation detection. CellTiter-Glo® Luminescent Cell Viability Assay (CellTiter-Glo® luminescent cell viability detection kit) was a homogeneous rapid detection method for detecting the viability of living cells in culture by quantitative determination of ATP. ATP was an indicator of the metabolism of living cells. Cell lysis and the resulting light signal were proportional to the amount of present ATP, and the amount of ATP is directly proportional to the number of living cells in the culture. The higher the fluorescence reading indicated the higher ATP content in the cell and also the higher the cell viability. Therefore, the inhibition degree of compound on cell proliferation can be monitored by fluorescence value. 1) The compound was diluted 2 mM with 100% DMSO, that is, 5 μL of 10 mM compound storage solution was taken and put into the first column of 96-well compound plate, then 20 μL of 100% DMSO were added and mixed well; 2) 20 μL of 100% DMSO was added to the second column to the tenth column of 96-well compound plate; 3) 5 μL of compound was taken from the first column to the second column and mixed well, and then 5 μL of compound was taken from the second column to the third column and mixed well. The above steps were repeated to the ninth column to complete the gradient dilution of the compound; 4) Preparation of compound working solution: 2 μL of compound per well from the second column of the compound plate was taken to a new 96 well compound plate, and 78 μL of cell culture medium per well was added; 2 μL of 100% DMSO from the negative control well was taken and 78 μL of cell culture medium was added; and 5) The compound concentration was the final concentration, in which the blank control well was the culture medium well without cells, and the negative control was 0.5% DMSO. 1) The BCR-FMS-BaF3 cell suspension was collected and centrifuged at 1000 rpm (revolutions per minute) for 5 minutes. The supernatant was removed, cells were resuspended with preheated medium and counted. After counting, the cell suspension was diluted with cell culture medium to the required density. Each well was inoculated with 80 μL cell suspension into 96 well cell culture plate. 2) On the day of the experiment, 20 μL of compound working solution was added to the cell plate and incubated for 3 days at 37° C. in a 5% CO2 incubator. [table] 3) After the incubation is completed, 20 μL of CTG detection reagent was added to each well of the cell plate, and incubated at 25° C. for 10 minutes. After the incubation is completed, EnVision was used for luminescence signal detection. […]
# [4] = Hygroscopicity study by dynamic vapor sorption (DVS); type: physicochemical; conditions: 80% RH/25° C.
# Protocol: Instrument model: SMS DVS Intrinsic dynamic vapor sorption instrument
# Test conditions: The sample (10 mg) was taken and placed in a DVS sample plate for testing.
# Detailed DVS parameters were as follows:
# Drying: 25° C., 0% RH drying for 2 hours
# Range of Rh (%) test step: 0%-95%-0% RH
# SMS DVS intrinsic dynamic vapor adsorption instrument
# A sample (10 mg) was taken and placed in a DVS sample plate for testing.
compound,measurement,setting,value
CNC(=O)c1nccc2c(-c3cnc(Nc4ccc(OC5CC5)nc4)cc3C)c[nH]c12.Cl,Crystal form (XRPD),[1]; 1 M,crystal form B
same,Crystal form (XRPD),[1]; 3 M,crystal form B
same,Crystal form (XRPD),[1]; 6 M,crystal form B
same,Crystal form (XRPD),[2]; 0 days (initial),crystal form B
same,Crystal form (XRPD),"[2]; 25° C./60% RH, 3 M",crystal form B
same,Crystal form (XRPD),"[2]; 25° C./60% RH, 6 M",crystal form B
same,Crystal form (XRPD),"[2]; 25° C./60% RH, 24 M",crystal form B
same,Crystal form (XRPD),"[2]; 30° C./65% RH, 1 M",crystal form B
same,Crystal form (XRPD),"[2]; 30° C./65% RH, 3 M",crystal form B
same,Crystal form (XRPD),"[2]; 30° C./65% RH, 6 M",crystal form B
same,Crystal form (XRPD),"[2]; high humidity (25° C./relative humidity 92.5%, open), 10 days",crystal form B
same,Crystal form (XRPD),"[2]; high humidity (25° C./relative humidity 92.5%, open), 30 days",crystal form B
same,Crystal form (XRPD),"[2]; high temperature (60° C., open), 10 days",crystal form B
same,Crystal form (XRPD),"[2]; high temperature (60° C., open), 30 days",crystal form B
same,Solid stability (conclusion),"[2]; influencing factors, light, acceleration and long-term experimental conditions",good stability
same,Crystal form (XRPD),"[2]; strong light (5000 lx and UV intensity 90 w/cm^2, open), 5 days",crystal form B
same,Crystal form (XRPD),"[2]; strong light (5000 lx and UV intensity 90 w/cm^2, open), 10 days",crystal form B
same,IC50,"[3]; mean of N = 1 and N = 2, read-out: IC50 (nM) Mean value ± SD",2.46 ± 0.008 nM
same,IC50,"[3]; replicate N = 1, read-out: IC50 (nM) N = 1",2.46 nM
same,IC50,"[3]; replicate N = 2, read-out: IC50 (nM) N = 2",2.47 nM
same,Inhibition of proliferation of BCR-FMS-BaF3 cells (conclusion in words),[3]; BCR-FMS-BaF3 cells,significantly inhibit the proliferation
same,Classification of hygroscopicity,[4],slight hygroscopicity
same,ΔW (hygroscopic weight gain),[4]; DVS,0.28%
